Experimental data published in patent US5998521A, “Aqueous fluoropolymer compositions and method of preparing the same” (3M Innovative Properties Company, priority 1996, dated 1999).

Legend:
[1] = Thermogravimetric analysis of neat perfluorocarboxylate salts; format: physicochemical; settings: neat salt, nitrogen, 10° C./min
Text: Thermal degradation measurements were made on a series of neat perfluorocarboxylate salts, including several α-branched open chain structures (Examples N2-N9), a primarily linear open chain structure (Example N10-Fluorad™ FC-143 Fluorochemical Surfactant, commercially available from 3M Company, St. Paul, Minn.), and a closed chain (i.e., cyclic) structure (Example N11--made by the electrochemical fluorination of benzoic acid and hydrolysis in the presence of KOH, as described in U.S. Pat. No. 2,567,011 (Diesslin et al.)).
The perfluorocarboxylate salts were tested using a Perkin-Elmer TGA 7 thermogravimetric analysis apparatus and a salt sample size of approximately 5 mg, a heating rate of 10° C./min, and a nitrogen gas flow rate of 40-45 mL/min. Using the TGA 7 software, the following temperatures were recorded: (1) the onset temperature of decomposition, (2) the temperature at which 50% of the sample weight was lost, and (3) the temperature at which 90% of the sample weight was lost.

[2] = Bacterial sludge contact test
Method: (§1) The environmental stability of C6 F13 CF(CF3)COO^- NH4^+ was investigated under ambient conditions using a bacterial sludge contact test. In this test, bacterial sludge was obtained from the municipal waste treatment plant at Pig's Eye, Minn., the sludge was centrifuged to collect the water-insoluble high density solids, and was reconstituted in water to a standard level of about 2000 ppm of total suspended solids. A 5 mL aliquot of the 2000 ppm sludge in water was placed in each of several 20 mL vials, and enough of the carboxylate salt was added to each vial to achieve a concentration of about 496 ppm (1 millimolar). Each vial was tightly capped with a septum cap and was allowed to stand at room temperature. At intervals, the concentrations of perfluoroolefin and perfluoromonohydride gases in each headspace were measured by removing a gas sample from the space over the liquid, using a Hewlitt Packard Gas Chromatograph with a headspace sampling accessory. The peak areas determined from each gas sample were compared to a standard series made by placing increasing concentrations of a defined mixture of perfluoroolefin and perfluoromonohydride in water in the same types of vials, and subjecting the headspaces in the vials to the same analytical procedure. Results, given below, state the complete conversion relative to theoretical percent of the amount of perfluoroolefin/perfluoromonohydride mixture formed relative to that expected from complete conversion of the salt to volatile fluorocarbons. A control experiment using water with no sludge was also run at the 28 day test point.

bacterial sludge = assay: Bacterial sludge contact test; settings: 28 days, ambient conditions
Method: as §1

Q: Which “Temperature for: 50% loss” value [1] does the source give for `O=C(O)C(F)(C(F)(F)F)C(F)(F)C(F)(F)C(F)(F)C(F)(F)C(F)(F)C(F)(F)F` (stereo not shown) [Example M16, C6 F13 CF(CF3)COO^- H4 N^+] here?
A: 179 °C

Q: And the “Temperature for: 90% loss” value [1]?
A: 193 °C

Q: And the “Temperature for: Onset” value [1]?
A: 165 °C

Q: What about the percent perfluoroolefin/perfluoromonohydride formed at 672 h, 1000 µM ([2]; Day 28, no sludge) of the same molecule?
A: 32%

Q: And the percent perfluoroolefin/perfluoromonohydride formed at 24 h, 1000 µM ([2]; bacterial sludge, Day 1, with sludge)?
A: 4%

Q: What about the percent perfluoroolefin/perfluoromonohydride formed at 96 h, 1000 µM ([2]; bacterial sludge, Day 4, with sludge) of the same molecule?
A: 13%

Q: What about the percent perfluoroolefin/perfluoromonohydride formed at 168 h, 1000 µM ([2]; bacterial sludge, Day 7, with sludge) of the same molecule?
A: 23%

Q: What about the percent perfluoroolefin/perfluoromonohydride formed at 336 h, 1000 µM ([2]; bacterial sludge, Day 14, with sludge) of the same molecule?
A: 44%

Q: And the percent perfluoroolefin/perfluoromonohydride formed at 672 h, 1000 µM ([2]; bacterial sludge, Day 28, with sludge)?
A: 70%

Q: What about the “effect of sludge on amount of perfluoroolefin/perfluoromonohydride” value (bacterial sludge) of the same molecule?
A: more than doubled
